# Experimental data reported in PMC7317717, “Electrophysiological Characterization of Transport Across Outer‐Membrane Channels from Gram‐Negative Bacteria in Presence of Lipopolysaccharides” (Angewandte Chemie (International Ed. in English), 2020).
# Structures can show the parent of a compound that is named as a salt.
# Tests used:
# Test in all cases: single-channel electrophysiology, planar lipid bilayer, ion current blockage events
# Type in all cases: binding
# OmpF (OmpF-WT) [1] = biological target: T1, OmpF (OmpF-WT) (Escherichia coli, UniProt P02931); settings: purified OmpF without LPS; 250 uM compound; 200 mM KCl, 20 mM MES, pH 6.0; negative voltage (-50 mV stated for the OMV values)
# T1 construct: purified wild-type OmpF, mature porin, homotrimer, reconstituted in planar lipid bilayer; OMV form overexpressed in E. coli BL21(DE3)omp8
# T1 sequence (P02931 23-362): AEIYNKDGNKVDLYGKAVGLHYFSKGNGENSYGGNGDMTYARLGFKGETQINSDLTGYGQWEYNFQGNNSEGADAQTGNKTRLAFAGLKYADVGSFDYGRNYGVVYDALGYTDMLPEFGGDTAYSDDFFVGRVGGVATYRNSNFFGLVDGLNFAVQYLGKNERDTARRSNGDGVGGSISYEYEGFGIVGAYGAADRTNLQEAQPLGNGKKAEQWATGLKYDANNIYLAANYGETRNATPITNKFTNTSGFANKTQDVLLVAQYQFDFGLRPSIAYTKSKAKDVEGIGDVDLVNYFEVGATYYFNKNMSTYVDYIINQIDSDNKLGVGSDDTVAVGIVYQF
# OmpF (OmpF-WT) [2] = biological target: T1, OmpF (OmpF-WT); settings: purified OmpF without LPS; 250 uM compound; 200 mM KCl, 20 mM MES, pH 6.0; negative voltage (-50 mV stated for the OMV values); remark: listed apart in the source
# Text: single-channel electrophysiology, planar lipid bilayer, ion current blockage events on OmpF (OmpF-WT) | Higher event rates are found using purified OmpF.
# OmpF (OmpF-WT) [3] = biological target: T1, OmpF (OmpF-WT); settings: purified OmpF; 10 uM compound; 1 M KCl, 20 mM MES, pH 6
Structure (SMILES),k off (OmpF (OmpF-WT) [1]) [s⁻¹],k on (OmpF (OmpF-WT) [2]),event rate (OmpF (OmpF-WT) [3])
CCN1CCN(c2cc3c(cc2F)c(=O)c(C(=O)O)cn3C2CC2)CC1 [Enrofloxacin],500,"72,000 s^-1 M^-1",
NC[C@H]1O[C@H](O[C@H]2[C@H](O)[C@@H](O[C@H]3O[C@H](CO)[C@@H](O)[C@H](N)[C@H]3O)[C@H](N)C[C@@H]2N)[C@H](O)[C@@H](O)[C@@H]1O [Kanamycin sulfate],,,Kanamycin sulfate permeation for both batches of preparation
